In publication PMC10327518 (Journal of Enzyme Inhibition and Medicinal Chemistry, 2023):
Where “and” joins values, the source holds several entries; their conditions need not be identical. Equal entries are not always repeated. Where two headings read alike, the source gives them in different places.

Experiments:
[1] = target: T1, eeAChE (electric eel AChE) (Electrophorus electricus, UniProt O42275); assay: biochemical; conditions: for inhibition at 25 µM: read-out: Inhibition percent rate eeAChE
T1 construct: purchased Sigma-Aldrich Co; host or cells: electric eel (natural source)
Description: (§1) 2.1 Inhibition experiments of AChE and BuChE. The modified Ellman method was
(§2) performed to test the AChE and BChE inhibitory ability of the compounds, using
(§3) eeAChE and eqBChE (Sigma-Aldrich Co.). […]

[2] = target: T2, eqBuChE (equine serum BuChE) (Equus caballus, UniProt P81908); assay: biochemical; conditions: for SI: SI = IC50 (AChE)/IC50 (BuChE); for inhibition at 25 µM: read-out: Inhibition percent rate eqBuChE
T2 construct: purchased Sigma-Aldrich Co; host or cells: equine serum (natural source)
Description: as §1, §2, §3

cholinesterase = target: cholinesterase; parameters: method as in PMID 11429429; conditions: read-out: IC50 anticholinesterase activity; cited from earlier work
eqBuChE = target: T3, eqBuChE (Equus caballus, UniProt P81908); assay type: biochemical, equine
T3 construct: purchased Sigma-Aldrich Co; host or cells: equine serum (natural source)
From the text: Further, the recovery capability of BuChE inhibitory effect after dilution was monitored by time.
Figure 2.

Plasma stability = assay type: in vitro ADME; conditions: rat, n = 3, read-out: t1/2 in blood plasma (converted)
Description: (3) The stability of compound was performed in rat plasma.
mg/mL) were dissolved in DMSO, and the reaction (10 μg/mL, n = 3) was prepared
by mixing 198 μL plasma with 2 μL compounds solution, then incubated in 37 ◦C and
stopped by adding 600 μL methanol at time of 0, 0.5, 1, 1.5, 2 and 3 h, followed by
centrifugation at 13,000 rpm for 10 min at 4 °C. The supernatant was dried and
redissolved in 100 μL methanol. After centrifugation, the supernatant was analyzed
by UPLC-MS/MS. The stability data was presented as remaining percentage vs time.

Kunming mice = assay: Acute toxicity (safety profile) in mice; conditions: 500 mg/kg, intragastric administration
Description: gender) were supplied by the Center of Experimental Animals of Sichuan Academy of
Chinese Medicine Sciences (eligibility certiﬁcation no. SCXK-Chuan2018-19). Mice
20−22 °C with a relative humidity of 60−70%. Sterile food and water were provided
according to institutional guidelines. Prior to each experiment, mice were fasted
overnight and allowed free access to water.
1000 mg/kg (n = 6 per group) by intragastric administration. After the administration
occasionally thereafter for 14 days for the onset of any delayed effects. All animals
were sacrificed on the 14th day after drug administration and were macroscopically

[3] = system: Aβ25-35-induced PC12 cell injury; assay: cells; conditions: Rattus norvegicus, PC-12, read-out: PC12 cells viability
From the text: (§4) 2.3 Neuroprotective effects on Aβ25-35-induced PC12 cells injury.
(§5) (1) Materials and reagents. PC12 cell (Purchased from the Cell Bank of Shanghai
(§6) Institute of Cell Biology, Chinese Academy of Sciences),
(§7) DME H-21 4.5g/Liter Glucose(Gibco), Fetal bovine serum (Vicente),
(§8) cellcountingkit-8, CCK8(Shanghai Biyuntian Biotechnology Co. , Ltd), 1%
(§9) penicillin-streptomycin (Double antibody, cellmax), Double antibody (Beijing
(§10) Co., Ltd), a phosphate -buffered solution , (PBS, Beijing Solebao Technology Co., Ltd),
(§11) (2) Istrument. Cell culture incubator(Thermo Scientific), Ultra-clean
(§12) workbench(Jiangsu Sujing Group Co., Ltd), Inverted phase-contrast fluorescence
(§13) microscope(Japan Nikon Corporation), Varioska full-wavelength multifunction
(§14) microplate reader(Thermo Scientific), Digital display constant temperature water bath
(§15) pot(Bangsi Instrument Technology Co., Ltd), 1/100,000 electronic balance(Shanghai
Jinghai Instrument Co., Ltd).
(§16) In this experiment, the cell viability was detected using CCK-8 kit and
(§17) (3) PC12 Cell complete medium formulation. Recover PC12 cells, use 10% fetal
(§18) bovine serum 50mL, 5% equine serum 25mL and 1% penicillin mixture 5mL, and
(§19) finally add DMEM high-sugar medium solution to 500mL, that is, to obtain.
(§20) (4) PC12 Cell Recover. Quickly remove the cells from the -80 °C freezer, shake
in a 37 °C water bath pot to dissolve quickly, disinfect the cryopreservation tube and
transfer it to the ultra-clean table, transfer the cryopreservation in the cryopreservation
tube to a 15 mL centrifuge tube, add 3 mL of complete medium, gently blow well
with a pipette, centrifuge at 1000 *g at room temperature for 5 min, discard the upper
layer of medium, add 4 mL complete medium again, gently blow well and transfer to
the culture flask, transfer to the incubator at 37 °C, 5% CO2, saturation humidity, and
change the liquid every other day.
(5) PC12 Cell Passage. During the logarithmic growth phase of cell growth, add
complete medium to stop digestion, transfer to a 15 mL centrifuge tube, centrifuge at
1000 *g at room temperature for 5 min, discard the upper layer medium, 1:4
(7) Preparation of sample solutions. […]

[4] = system: IL-1β production in LPS-stimulated BV-2 cells; assay: IL-1β production in LPS-stimulated BV-2 cells (ELISA); assay type: cell-based
PC12 cells = assay: Cytotoxicity on PC12 cells, CCK-8 assay; assay type: cell-based; conditions: at 30 μM
From the text: as §4, §5, §6, §7, §8, §9, §10, §11, §12, §13, §14, §15
Jinghai Instrument Co., Ltd).
as §16, §17, §18, §19, §20
in a 37 °C water bath pot to dissolve quickly, disinfect the cryopreservation tube and […]

[5] = system: NO release in LPS-stimulated BV-2 cells; assay: NO release in LPS-stimulated BV-2 cells (Griess method); assay type: cell-based; conditions: 1, 3, and 9 μM; LPS 1 μg/mL (model 31.9 μM)
[6] = Stability in artificial gastrointestinal fluids; assay type: in vitro ADME; conditions: 37 °C
Description: Based on the above data, 5a was chosen to evaluate the stabilities by artificial gastrointestinal solution, blood plasma, and rat liver microsomes.
Cell viability(%) = (Asample-Ablank)/(Acontrol-Ablank) ×100%. Asample, Ablank and Acontrol
medium, or vehicle, respectively.
method described in China Pharmacopoeia (version 2015). The artificial gastric fluid
described above without pepsin and trypsin. Compound 5a (1 mg/mL, n = 3) was
Supernatant was collected by
were processed by GraphPad Prism 8.0 software.
Solution B (25 mL) contained

[7] = system: scopolamine-induced cognitive dysfunction in mice; assay: Step-down passive avoidance task, scopolamine-induced cognitive dysfunction; assay type: in vivo
Description: The in vivo effects of 5a were determined through the step-down passive avoidance task. […]. page 9: […]
Assay method. The step-down passive avoidance task was employed to investigate
the effects of 5a on scopolamine-induced memory impairment.21,22 Sixty mice were
random divide into six groups. […]

BV-2 cells = assay: Cytotoxicity on BV-2 cells, CCK-8 assay; assay type: cell-based; conditions: at 10 μM
Description: 5a was chosen to evaluate the anti-inflammation property through testing the production of IL-1β, IL-6, and NO in LPS-induced BV-2 cells[25]^,[26]. First of all, the cytotoxicity of 5a was determined through the CCK-8 assay.
2.1 Inhibition experiments of AChE and BuChE. The modified Ellman method was performed to test the AChE and BChE inhibitory ability of the compounds, using eeAChE and eqBChE (Sigma-Aldrich Co.). The detailed procedure referenced our […]
2.2 Anti-inflammatory property. BV-2 cells were cultured in DMEM containing 10% fetal bovine serum, 100 U/mL penicillin, 100 U/mL streptomycin, and 1% nonessential amino acid at 37℃ with 5% CO2.
BV-2 cells in logarithmic growth stage were digested and centrifuged, and then resuspended in DMEM medium containing 1% penicillin-streptomycin and 10% fetal bovine serum. The cells was adjusted to 1.2 × 10^4 cells/well, and then seeded evenly in 96-well cell culture plates. The cells were incubated for 36 h at 37℃ with 5% CO2. […]
BV-2 cells (2 × 10^5 cells/well) were seeded in a 24-well cell culture plates. […] The content of NO in cell culture supernatant was determined by Griess method, and the levels of cytokines IL-6 and IL-1β in cell culture supernatant were determined by IL-6 ELISA kit and IL-1β ELISA kit, respectively.

[8] = system: IL-6 production in LPS-stimulated BV-2 cells; assay: IL-6 production in LPS-stimulated BV-2 cells (ELISA); assay type: cell-based; conditions: LPS 1 μg/mL
[9] = Rat liver microsomes stability; assay type: in vitro ADME; conditions: n = 3, read-out: t1/2 in rat liver microsomes
Description: microsomes was purchased from Dalian Meilun Biotechnology Co., Ltd, DaLian,
China. Briefly, solution A (10 mL) contained G-6-P-Na2 (200 mg), NADPNa2 (200
G-6-P-DH (1000 U), Na-Citrate2 (200 mg), and H2O was used as a solvent. NADPH
solution (1 mM) was composed by solution A and solution B (v/v = 5:1). Compound
was dissolved in DMSO to obtain 1 mg/mL stock solution. Rat liver microsomes was
added to compound solution (the final concentration of compound and rat liver
microsomes was 10 μg/mL and 0.5 mg/mL, respectively) (n = 3). The reaction was
started by the addition of NADPH. The total mixture (200 μL) was incubated at 37 °C.
Cold methanol (600 μL) was added at 0, 5, 15, 20, 30, 45 and 60 min , respectively, to
stop the reaction. Samples were centrifuged at 13000 rpm fo r 10 min at 4 °C, and 100
μL supernatant was removed and analyzed by UPLC-MS/MS. The stability results
were presented as % remaining vs. time.

[10] = mean ± SD, read-out: IC50 ± SD eeAChE
[11] = mean ± SD, read-out: IC50 ± SD eqBuChE

T1 sequence (O42275 24-633): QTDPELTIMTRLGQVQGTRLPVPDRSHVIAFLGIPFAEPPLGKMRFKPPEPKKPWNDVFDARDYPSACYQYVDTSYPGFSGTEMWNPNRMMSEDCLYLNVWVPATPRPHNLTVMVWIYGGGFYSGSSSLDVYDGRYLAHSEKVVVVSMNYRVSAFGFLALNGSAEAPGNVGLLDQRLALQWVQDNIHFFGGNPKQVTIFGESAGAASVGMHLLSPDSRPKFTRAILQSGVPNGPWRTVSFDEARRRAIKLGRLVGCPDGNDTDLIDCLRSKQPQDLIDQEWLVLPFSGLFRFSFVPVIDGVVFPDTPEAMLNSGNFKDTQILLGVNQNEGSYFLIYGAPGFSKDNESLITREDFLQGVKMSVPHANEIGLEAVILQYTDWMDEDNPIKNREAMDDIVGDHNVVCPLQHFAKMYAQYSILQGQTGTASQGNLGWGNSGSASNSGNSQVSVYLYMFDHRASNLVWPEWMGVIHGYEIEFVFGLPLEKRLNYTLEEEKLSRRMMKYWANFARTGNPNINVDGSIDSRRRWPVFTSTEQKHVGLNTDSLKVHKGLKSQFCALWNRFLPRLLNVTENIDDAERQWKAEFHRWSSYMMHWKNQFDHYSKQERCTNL
T2 sequence (P81908 whole entry): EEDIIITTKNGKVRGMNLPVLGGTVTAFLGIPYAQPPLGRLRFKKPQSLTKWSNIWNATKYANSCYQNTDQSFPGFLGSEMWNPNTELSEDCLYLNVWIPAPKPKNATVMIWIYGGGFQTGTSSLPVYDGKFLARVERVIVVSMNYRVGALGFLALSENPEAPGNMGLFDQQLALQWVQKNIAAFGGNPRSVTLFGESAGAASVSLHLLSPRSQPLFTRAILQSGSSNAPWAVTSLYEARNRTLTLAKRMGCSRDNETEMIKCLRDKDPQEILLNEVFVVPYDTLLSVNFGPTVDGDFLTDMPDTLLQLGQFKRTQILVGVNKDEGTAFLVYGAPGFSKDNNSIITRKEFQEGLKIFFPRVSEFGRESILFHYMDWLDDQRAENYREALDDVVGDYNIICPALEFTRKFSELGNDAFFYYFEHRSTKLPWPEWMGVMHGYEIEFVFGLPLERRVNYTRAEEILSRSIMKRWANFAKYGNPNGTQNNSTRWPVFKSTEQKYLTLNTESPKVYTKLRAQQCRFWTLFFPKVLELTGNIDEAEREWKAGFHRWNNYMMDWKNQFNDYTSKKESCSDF
T3 sequence (P81908 whole entry): as above

CN(C)C(=O)Oc1ccc(OC(=O)N(C)C)c(C(=O)N2CCC(Cc3ccccc3)CC2)c1 [Compound 5f, 2-(4-Benzylpiperidine-1-carbonyl)-1,4-phenylene bis(dimethylcarbamate)]
IC50 [1]: 5.2 ± 0.35 µM | IC50 [2]: 16.3 ± 0.86 µM | SI [2]: 0.32

CC(C)N(C(=O)Oc1ccc(C(=O)N2CCC(Cc3ccccc3)CC2)c(OC(=O)N(C(C)C)C(C)C)c1)C(C)C [Compound 5c, 4-(4-Benzylpiperidine-1-carbonyl)-1,3-phenylene bis(diisopropylcarbamate)]
IC50 [1, 10]: 7.1 ± 0.23 µM | SI [2]: 0.66 | IC50 [2, 11]: 10.8 ± 0.56 µM

O=C(O)c1ccc(O)cc1O [Compound 1a, 2,4-dihydroxybenzoic acid]
inhibition at 25 µM [1]: 16.3 ± 0.17% | inhibition at 25 µM [2]: 25.8 ± 0.93%

O=C(Oc1ccc(C(=O)N2CCC(Cc3ccccc3)CC2)c(OC(=O)N2CCCC2)c1)N1CCCC1 [Compound 5d, 4-(4-Benzylpiperidine-1-carbonyl)-1,3-phenylene bis(pyrrolidine-1-carboxylate)]
IC50 [1, 10]: 22.3 ± 1.8 µM | SI [2]: 2.6 | IC50 [2, 11]: 8.7 ± 0.93 µM

CCN(C)C(=O)Oc1ccc(OC(=O)N(C)CC)c(C(=O)N2CCC(Cc3ccccc3)CC2)c1 [Compound 5g, 2-(4-Benzylpiperidine-1-carbonyl)-1,4-phenylene bis(ethyl(methyl)carbamate)]
IC50 [1]: 4.9 ± 0.68 µM | IC50 [2]: 13.5 ± 0.52 µM | SI [2]: 0.36

O=C(Oc1ccc(C(=O)N2CCC(Cc3ccccc3)CC2)c(OC(=O)N2CCOCC2)c1)N1CCOCC1 [Compound 5e, 4-(4-Benzylpiperidine-1-carbonyl)-1,3-phenylene bis(morpholine-4-carboxylate)]
IC50 [1, 10]: 18.3 ± 0.87 µM | SI [2]: 1.4 | IC50 [2, 11]: 13.1 ± 0.72 µM

O=C(O)c1ccccc1O [SA, Salicylic acid]
IC50 (cholinesterase): 346 µM

CCN(C)C(=O)Oc1cccc([C@H](C)N(C)C)c1 [Rivastigmine, rivastigmine, reference compound]
BChE activity (% control) (eqBuChE): 53.2 % control and 49.8 % control | BuChE activity recovered (eqBuChE): 68.7% | Type of inhibition (reversibility) (eqBuChE): pseudo-irreversible | eqBuChE activity restored (eqBuChE): no significant recovery

CN(C)C(=O)Oc1ccc(C(=O)N2CCC(Cc3ccccc3)CC2)c(OC(=O)N(C)C)c1 [Compound 5a, 4-(4-Benzylpiperidine-1-carbonyl)-1,3-phenylene bis(dimethylcarbamate)]
IC50 [1]: 7.8 ± 0.36 µM | IC50 [2]: 0.53 ± 0.01 µM | SI [2]: 14.7 | half-life at 10 μg/mL (Plasma stability): 3.25 h | Abnormal behaviour (safety profile) (Kunming mice): did not present abnormal behaviour | viability at 1 µM [3]: 61.7% | viability at 3 µM [3]: 68.6% | viability at 9 µM [3]: 83.3% | Level of IL-1β ([4]; 5a 1 μM, LPS 1 μg/mL (model 302.7 pg/mL)): 67.2 pg/mL | Level of IL-1β ([4]; 5a 3 μM, LPS 1 μg/mL): 90.9 pg/mL | Level of IL-1β ([4]; 5a 9 μM, LPS 1 μg/mL): 163.4 pg/mL | BuChE activity recovered (eqBuChE; 0.1 × IC50, at 120 min, Figure 2(B)): 63.9% | BChE activity (% control) (eqBuChE; 1*IC50, Figure 2(A)): 48.6 % control | eqBuChE activity restored (eqBuChE; after dilution to 0.1 × IC50, text on Figure 2(A)): no significant recovery | BChE activity (% control) (eqBuChE; diluted to 0.1*IC50, Figure 2(A)): 46.7 % control | Type of inhibition (reversibility) (eqBuChE; from recovery after dilution): pseudo-irreversible | Cytotoxicity on PC12 cells (PC12 cells): no obvious cytotoxicity | Release volume of NO [5]: remarkably declined | Residual amount ([6]; after 8 h incubation in artificial gastric juice): 95.6% | Residual amount ([6]; after 8 h incubation in artificial intestinal juice): 110.6% | Residual amount ([6]; after 8 h incubation in blank gastric juice): 99.5% | Residual amount ([6]; after 8 h incubation in blank intestinal juice): 97.5% | Step-down latency ([7]; 5a 1.23 mg/kg, scopolamine 2.0 mg/kg): 140.1 s | Step-down latency ([7]; 5a 2.45 mg/kg, scopolamine 2.0 mg/kg): 77.8 s | Step-down latency ([7]; 5a […], scopolamine 2.0 mg/kg): 105.2 s | Cytotoxicity on BV-2 cells (BV-2 cells): did not produce significant cytotoxicity | Level of IL-6 ([8]; 5a 3 μM): 505.3 pg/mL | Level of IL-6 ([8]; 5a 9 μM): 971.1 pg/mL | half-life at 10 μg/mL [9]: 0.32 h

COc1cc2c(cc1OC)C(=O)C(CC1CCN(Cc3ccccc3)CC1)C2 (stereo not drawn) [Donepezil, donepezil, reference compound]
Step-down latency ([7]; donepezil 2.0 mg/kg, scopolamine 2.0 mg/kg (model 42.1 s)): 144.3 s

CC(C)N(C(=O)Oc1ccc(OC(=O)N(C(C)C)C(C)C)c(C(=O)N2CCC(Cc3ccccc3)CC2)c1)C(C)C [Compound 5h, 2-(4-Benzylpiperidine-1-carbonyl)-1,4-phenylene bis(diisopropylcarbamate)]
IC50 [1, 10]: 8.2 ± 0.67 µM | SI [2]: 0.49 | IC50 [2, 11]: 16.7 ± 1.2 µM

CCN(C)C(=O)Oc1ccc(C(=O)N2CCC(Cc3ccccc3)CC2)c(OC(=O)N(C)CC)c1 [Compound 5b, 4-(4-Benzylpiperidine-1-carbonyl)-1,3-phenylene bis(ethyl(methyl)carbamate)]
IC50 [1]: 6.3 ± 0.41 µM | IC50 [2]: 2.6 ± 1.8 µM | SI [2]: 2.4

O=C(O)c1cc(O)ccc1O [Compound 1b, 2,5-dihydroxybenzoic acid]
inhibition at 25 µM [1]: 20.6 ± 1.2% | inhibition at 25 µM [2]: 18.2 ± 0.67%
